Literature values in article PMC10146264, “Safety, Pharmacokinetic and Pharmacodynamic Evaluation of Teverelix for the Treatment of Hormone-Sensitive Advanced Prostate Cancer: Phase 2 Loading-Dose-Finding Studies” (Medicina, 2023).

Legend:
[1] = test system: patients with prostate cancer; conditions: in vivo
patients = test system: patients
From the text: In the United States, cardiovascular disease is the main cause of death for prostate cancer patients, and patients with prostate cancer have a higher risk of death from non-cancer causes than the general population. ADT is associated with a number of cardiometabolic side effects including decreased insulin sensitivity, changes in lipid profile, and an increased risk of thromboembolic and cerebrovascular events. The risk seems to be highest in elderly patients who have had recent cardiovascular events before starting ADT [27]. According to a Scientific Statement issued by the Am ...

Row | Molecule | Incidence of injection-site reactions [1] | Major cardiovascular events, patients (patients; phase 3 randomized trial, within the first 12 months of treatment) [%] | Major cardiovascular events, HR [95% CI] GnRH antagonist vs GnRH agonist (patients; phase 3 trial relugolix vs leuprolide, first 12 months of treatment)
1 | Degarelix | ~ 40% | – | –
2 | CONC(=O)Nc1ccc(-c2sc3c(c2CN(C)C)c(=O)n(-c2ccc(OC)nn2)c(=O)n3Cc2c(F)cccc2F)cc1 [relugolix] | – | 2.9 | 0.46
